Experimental data as given in patent US9775902B2, “Compounds and methods for treatment of stroke” (FIBROGEN, INC, priority 2006, dated 2017).

Key:
erythropoietin (EPO) [1] = experiment: EPO expression in Hep3B cells (QUANTIKINE immunoassay of conditioned media); type: cell-based, Human; conditions: for Fold Increase Over Control: EPO, vs 1% DMSO control; for EPO: conditioned media after overnight incubation with compound
Method: The effect of compounds of the present invention on expression of cytoprotective and neuroprotective factors in cells was evaluated as follows. Human cells derived from hepatocarcinoma (Hep3B) tissue (see, e.g., American Type Culture Collection, Manassas Va.) were seeded into 35 mm culture dishes and grown at 37° C., 20% O2, 5% CO2 in Minimal Essential Medium (MEM), Earle's balanced salt solution (Mediatech Inc., Herndon Va.), 2 mM L-glutamine, 0.1 mM non-essential amino acids, 1 mM sodium pyruvate, and 10% FBS. When cell layers reached confluence, the media was replaced with OPTI-MEM media (Invitrogen Life Technologies, Carlsbad Calif.) and cell layers were incubated for approximately 24 hours in 20% O2, 5% CO2 at 37° C. Various compounds of the present invention or 1% DMSO (negative control) were then added to existing media and incubation was continued overnight.
Following incubation, the conditioned media was collected from cell cultures and analyzed for erythropoietin (EPO) expression using a QUANTIKINE immunoassay (R&D Systems, Inc., Minneapolis Minn.) according to the manufacturer's instructions.

VEGF = experiment: Plasma VEGF in mice after intravenous injection; type: in vivo, Swiss Webster mice; conditions: mouse plasma, 20 mg/kg i.v., four hours after injection; for fold induction at 20 mg/kg: iv, 4 h, read-out: VEGF Fold Increase
Method: (§1) The effect of compounds of the present invention on expression of cytoprotective and neuroprotective factors in vivo was evaluated as follows. In one series of experiments, male Swiss Webster mice (29-34 g) were administered various compounds of the present invention via intravenous injection into the caudal tail vein. Animals treated by intravenous injection received a 6 ml/kg volume of either 5% Dextrose with an equimolar amount of NaOH or Meglumine (vehicle control) or 20 mg/kg of a compound of the present invention in 5% dextrose with an equimolar amount of NaOH or Meglumine. Four hours after injection, the animals were anesthetized and exsanguinated. Plasma samples were collected in EDTA and heparin coated microtainer tubes. Plasma samples were assayed for erythropoietin and VEGF using commercially-available ELISA kits purchased from R & D Systems (Minneapolis Minn.).

[2] = system: vascular endothelial growth factor (VEGF); experiment: VEGF expression in Kelly neuroblastoma cells; type: cell-based; conditions: for VEGF: conditioned media after overnight incubation
Method: (§2) The effect of compounds of the present invention on expression of cytoprotective and neuroprotective factors in neuroblastoma cells was evaluated as follows. Kelly neuroblastoma cells (see, e.g., DSMZ, cat# ACC-355, Braunschweig Germany) were treated with various compounds of the present invention or 1% DMSO (negative control). Following an overnight incubation, the conditioned media was collected from cell cultures and analyzed for erythropoietin (EPO) and vascular endothelial growth factor (VEGF) expression using a QUANTIKINE immunoassay (R&D Systems, Inc., Minneapolis Minn.) according to the manufacturer's instructions.

erythropoietin (EPO) [3] = experiment: EPO expression in Kelly neuroblastoma cells; type: cell-based; conditions: for EPO: conditioned media after overnight incubation
Method: as §2

erythropoietin = experiment: Plasma EPO in mice after intravenous injection; type: in vivo, Swiss Webster mice; conditions: mouse plasma, 20 mg/kg i.v., four hours after injection; for fold induction at 20 mg/kg: iv, 4 h, read-out: EPO Fold Increase; for EPO: mouse EPO ELISA kit (**)
Method: as §1

Structure (SMILES)	Fold Increase Over Control (erythropoietin (EPO) [1])	EPO (erythropoietin (EPO) [1]) [mIU/ml]	fold induction at 20 mg/kg (VEGF)	VEGF (VEGF) [pg/mL]	VEGF Fold Increase [2]	VEGF [2] [pg/mL]	EPO Fold Increase (erythropoietin (EPO) [3])	EPO (erythropoietin (EPO) [3]) [mIU/ml]	fold induction at 20 mg/kg (erythropoietin)	EPO (erythropoietin) [pg/mL]
O=C(O)CNC(=O)c1nc(Cl)c2ccccc2c1O [Compound A, [(1-Chloro-4-hydroxy-isoquinoline-3-carbonyl)-amino]-acetic acid]	13.6	18.3								
O=C(O)CNC(=O)c1nc(Br)c2cc(Br)sc2c1O [Compound AD, [(2,4-Dibromo-7-hydroxy-thieno[3,2-c]pyridine-6-carbonyl)-amino]-acetic acid]	6.5	34.9	2.54	66	3.5	5123.0	7.3	138.2	27.4	1997
O=C(O)CNC(=O)c1ncc2cc(Oc3ccccc3)sc2c1O [Compound AG, [(7-Hydroxy-2-phenoxy-thieno[3,2-c]pyridine-6-carbonyl)-amino]-acetic acid]	8.5	27.3	1.76	51	5.9	8670	14.44	273	1.91	303
N#Cc1nc(C(=O)NCC(=O)O)c(O)c2sccc12 [Compound AH, [(4-Cyano-7-hydroxy-thieno[3,2-c]pyridine-6-carbonyl)-amino]-acetic acid]	7.1	13.4	1.76	44	4.5	6590	11.95	225.8	11.6	1242
O=C(O)CNC(=O)c1nc(-c2ccoc2)c2ccsc2c1O [Compound AI, [(4-Furan-3-yl-7-hydroxy-thieno[3,2-c]pyridine-6-carbonyl)-amino]-acetic acid]	6.1	7.9	0.91	20	4.8	7003	17.02	321.6	1.96	221
O=C(O)CNC(=O)c1ncc2c(-c3ccc(F)cc3)c(-c3ccc(F)cc3)sc2c1O [Compound AJ, {[2,3-Bis-(4-fluoro-phenyl)-7-hydroxy-thieno[3,2-c]pyridine-6-carbonyl]-amino}-acetic acid]	42.8	62.9	1.16	29	3.0	4102			2.53	271
COc1cccc(Oc2cccc3c(O)c(C(=O)NCC(=O)O)nc(C#N)c23)c1 [Compound AP, {[1-Cyano-4-hydroxy-8-(3-methoxy-phenoxy)-isoquinoline-3-carbonyl]-amino}-acetic acid]	17.2	53.4	0.43	27	2.2	3266	1.44	27.2	20.1	3595
Cc1nc2ccc(Oc3ccc4c(C#N)nc(C(=O)NCC(=O)O)c(O)c4c3)cc2o1 [Compound AQ, {[1-Cyano-4-hydroxy-6-(2-methyl-benzooxazol-6-yloxy)-isoquinoline-3-carbonyl]-amino}-acetic acid]	16.5	32.9	1.69	59	2.6	3795	4.34	82	23.8	11464
O=C(O)CNC(=O)c1nc2cc(Cl)ccc2c(-c2cccc(C(F)(F)F)c2)c1O [Compound AU, {[7-Chloro-3-hydroxy-4-(3-trifluoromethyl-phenyl)-quinoline-2-carbonyl]-amino}-acetic acid]	7.1	19.2			5.1	6877	4.16	109.1		
O=C(O)CNC(=O)c1nc2cc(Cl)ccc2cc1O [Compound B, [(7-Chloro-3-hydroxy-quinoline-2-carbonyl)-amino]-acetic acid]	9.8	14.2								
O=C(O)CNC(=O)c1nc2ccc(Oc3ccccc3)cc2cc1O [Compound C, [(3-Hydroxy-6-phenoxy-quinoline-2-carbonyl)-amino]-acetic acid]	2.2	241.4			9.1	1445.7	3.5	21.8		
Cc1cccc2c(Cl)nc(C(=O)NCC(=O)O)c(O)c12 [Compound D, [(1-Chloro-4-hydroxy-5-methyl-isoquinoline-3-carbonyl)-amino]-acetic acid]	2.7	205.7								
COc1ccc(Oc2ccc3c(Cl)nc(C(=O)NCC(=O)O)c(O)c3c2)cc1 [Compound H, {[1-Chloro-4-hydroxy-6-(4-methoxy-phenoxy)-isoquinoline-3-carbonyl]-amino}-acetic acid]	5.4	84.0								
Cc1nc(C(=O)NCC(=O)O)c(O)c2ccc(Oc3ccccc3)cc12 [Compound J, [(4-Hydroxy-1-methyl-7-phenoxy-isoquinoline-3-carbonyl)-amino]-acetic acid]		120.0								
Cc1nc(C(=O)NCC(=O)O)c(OCc2ccccc2)c2ccc(Oc3ccccc3)cc12 [Compound K, [(4-Benzyloxy-1-methyl-7-phenoxy-isoquinoline-3-carbonyl)-amino]-acetic acid]	1.8	57.4								
O=C(O)CNC(=O)c1nc(Sc2ccc(Cl)cc2)c2ccccc2c1O [Compound U, {[1-(4-Chloro-phenylsulfanyl)-4-hydroxy-isoquinoline-3-carbonyl]-amino}-acetic acid]					9.7	1526.0	1.4	8.9		
O=C(O)CNC(=O)c1ncc2cc(SC3CCCCC3)ccc2c1O [Compound V, [(7-Cyclohexylsulfanyl-4-hydroxy-isoquinoline-3-carbonyl)-amino]-acetic acid]					13.5	2132.0	3.9	24.2		
N#Cc1nc(C(=O)NCC(=O)O)c(O)c2cccc(Oc3ccccc3)c12 [Compound W, [(1-Cyano-4-hydroxy-8-phenoxy-isoquinoline-3-carbonyl)-amino]-acetic acid]			1.38	40	5.0	1846	11.35	214.6	45.6	725.4
